Molecules are shown by their SMILES. pEC50, pIC50: −log10 of the molar value. ≈ marks a conversion by molar mass, not a printed value. Calls of active or inactive are those of the source. No cut-off for these calls is given here.

For orientation: GI50 means the concentration at which growth is held to half of that of the control. In general, pIC50 refers to the IC50 on a negative log10 scale, so that one unit is a factor of ten.

In assay [1] the test system is Neisseria gonorrhoeae. In words: Antibacterial activity against Neisseria gonorrhoeae by disk susceptibility test. Format: functional.
For a further assay, the system named is P388. In words: Cytotoxicity against mouse P388 cells. Format: functional. To be noted: read-out: ED50 (the source's name).
For another assay, the system named is FaDu. In words: Cytotoxicity against human FaDu cells. Format: functional.
The species named for assay [2] is Bos taurus. In words: Displacement of [3H]colchicine from bovine tubulin at inhibitor to colchicine ratio of 0.2:1. The arrangement: scale not given: the % may be the effect or the level left. (In general: In a radioligand displacement assay an active substance lowers the binding of a labelled ligand.)
For assay [3], the species on record is Bos taurus. The assay can be described thus: Displacement of [3H]colchicine from bovine tubulin at inhibitor to colchicine ratio of 1:1. Details: scale not given: the % may be the effect or the level left.
Assay [4] concerns Staphylococcus aureus. In words: Antibacterial activity against Staphylococcus aureus by disk susceptibility test. Format: functional.
The nature of assay [5]: Inhibition of bovine tubulin polymerization. Details: species or system Bos taurus.
Assay [6] concerns Streptococcus pneumoniae. The assay can be described thus: Antibacterial activity against Streptococcus pneumoniae by disk susceptibility test. The format is functional.
In the next assay the test system is L1210. In words: Cytotoxicity against mouse L1210 cells. The format is functional. As to conditions: read-out: ED50 (the source's name).
Assay [7] concerns Candida albicans. In words: Antifungal activity against Candida albicans by disk susceptibility test. The format is functional.
Assay [8] has as its system Cryptococcus neoformans. The assay can be described thus: Antifungal activity against Cryptococcus neoformans by disk susceptibility test. Format: functional.
For assay [9], the system named is Stenotrophomonas maltophilia. The assay can be described thus: Antibacterial activity against Stenotrophomonas maltophilia by disk susceptibility test. The format is functional.
The next assay deals with Micrococcus luteus. In words: Antibacterial activity against Micrococcus luteus at 100 ug/disk by disk susceptibility test.
The test system of assay [10] is Streptococcus pneumoniae. The assay can be described thus: Antibacterial activity against Streptococcus pneumoniae at 100 ug/disk by disk susceptibility test.
Assay [11] has as its system Cryptococcus neoformans. The assay can be described thus: Antifungal activity against Cryptococcus neoformans at 100 ug/disk by disk susceptibility test.
Assay [12] has as its system Candida albicans. The assay can be described thus: Antifungal activity against Candida albicans at 100 ug/disk by disk susceptibility test.
The subject of assay [13] is Staphylococcus aureus. The assay can be described thus: Antibacterial activity against Staphylococcus aureus at 100 ug/disk by disk susceptibility test.
The test system of another assay is Enterobacter cloacae. The assay can be described thus: Antibacterial activity against Enterobacter cloacae at 100 ug/disk by disk susceptibility test.
In a further assay the test system is Enterococcus faecalis. In words: Antibacterial activity against Enterococcus faecalis at 100 ug/disk by disk susceptibility test.
The subject of assay [14] is Neisseria gonorrhoeae. The assay can be described thus: Antibacterial activity against Neisseria gonorrhoeae at 100 ug/disk by disk susceptibility test.
Assay [15] has as its system Stenotrophomonas maltophilia. In words: Antibacterial activity against Stenotrophomonas maltophilia at 100 ug/disk by disk susceptibility test.
A further assay has as its system Escherichia coli. The assay can be described thus: Antibacterial activity against Escherichia coli at 100 ug/disk by disk susceptibility test.

Compound `COc1ccc(/C=C\c2cc(OC)c(OC)c(OC)c2)cc1OP(=O)([O-])[O-].[Na+].[Na+]` [FOSBRETABULIN DISODIUM] showed an MIC in the assay on Neisseria gonorrhoeae [1] of 50 µg. The EC50 in the assay with P388 was 0.0004 µg/mL.

Regarding `COc1cc(/C=C\c2ccc(OC)c(OP(=O)([O-])[O-])c2OP(=O)([O-])[O-])cc(OC)c1OC.[Na+].[Na+].[Na+].[Na+]`, the EC50 with P388 was < 0.01 µg/mL.

Consider `COc1ccc(/C=C\c2cc(OC)c(OC)c(OC)c2)c(O)c1O` [COMBRETASTATIN A-1], for which the GI50 in the assay with FaDu worked out at 0.23 µg/mL (≈ 0.692 µM). Also, the Activity turned out to be 89% in the assay listed under Bos taurus [2] and 99.6% in the assay listed under Bos taurus [3]. The MIC against Neisseria gonorrhoeae [1] is 25 µg; against Staphylococcus aureus [4], 50 µg. In addition, the EC50 in the assay with P388 was 0.2 µg/mL (≈ 0.602 µM). Moreover, in assay [5], the pIC50 is 5.96.

In the assay on FaDu, `COc1ccc([C@@H](O)[C@H](O)c2cc(OC)c(OC)c(OC)c2)cc1O` returned a GI50 of 2.1 µg/mL (≈ 5.99 µM). In addition, the MIC against Streptococcus pneumoniae [6] worked out at 50 µg. Further, the EC50 in the assay with P388 turned out to be 19 µg/mL (≈ 54.2 µM). For the same compound, the pIC50 in assay [5] was < 4.40.

For the compound `COc1ccc(/C=C\c2cc(OC)c(OC)c(OC)c2)cc1O` [COMBRETASTATIN A4], in the assay on FaDu, growth was halved (GI50) at 0.0007 µg/mL (≈ 0.00221 µM). In the assay with Neisseria gonorrhoeae [1], this compound yielded an MIC of 25 µg. Also, the EC50 in the assay with P388 was 0.0003 µg/mL (≈ 0.000948 µM). For the same compound, the pEC50 with L1210 was 8.15.

As for `COc1ccc(/C=C/c2cc(OC)c(OC)c(OC)c2)c(O)c1O`, the MIC in the assay with Neisseria gonorrhoeae [1] was found to be 6.25 µg; against Candida albicans [7], 50 µg; against Staphylococcus aureus [4], 50 µg; in the assay with Cryptococcus neoformans [8] it was 50 µg; against Streptococcus pneumoniae [6], 50 µg; in assay [9] it was 50 µg.

For `COc1ccc(/C=C/c2cc(OC)c(OC)c(OC)c2)cc1O`, the outcome in the assay on Micrococcus luteus, with Streptococcus pneumoniae [10], with Cryptococcus neoformans [11], in the assay on Candida albicans [12], in the assay with Staphylococcus aureus [13] and with Enterobacter cloacae was inactive. For the same compound, the result (in the assay with Enterococcus faecalis; in the assay with Neisseria gonorrhoeae [14]; in assay [15]; in the assay on Escherichia coli) was inactive.

In the case of `COc1ccc([C@H](O)[C@@H](O)c2cc(OC)c(OC)c(OC)c2)c(O)c1O`, the GI50 in the assay on FaDu is > 10 µg/mL. The compound further had an MIC in the assay on Neisseria gonorrhoeae [1] of 25 µg. In the assay with P388, the EC50 was 2.9 µg/mL (≈ 7.92 µM). In [5], this compound showed a pIC50 of 5.00.

Turning to `COc1ccc(CCc2cc(OC)c(OC)c(OC)c2)c(O)c1O`, in the assay on Neisseria gonorrhoeae [1], the MIC was 12.5 µg. Further, the EC50 in the assay with P388 was 1.7 µg/mL (≈ 5.08 µM).

On to `COc1ccc([C@@H](O)[C@H](O)c2cc(OC)c(OC)c(OC)c2)c(O)c1O`, for which, in the assay on FaDu, the GI50 is 4.9 µg/mL (≈ 13.4 µM). Moreover, the result with Micrococcus luteus, in the assay with Streptococcus pneumoniae [10], in the assay with Cryptococcus neoformans [11], with Candida albicans [12], with Staphylococcus aureus [13] and in the assay with Enterobacter cloacae was inactive. Moreover, the outcome (in the assay on Enterococcus faecalis; in the assay with Neisseria gonorrhoeae [14]; in [15]; with Escherichia coli) was inactive. Further, the EC50 in the assay on P388 was 3.9 µg/mL (≈ 10.6 µM). Moreover, in [5], the pIC50 is 4.70.

With `COc1cc(CCc2ccc(OC)c(OP(=O)([O-])[O-])c2OP(=O)([O-])[O-])cc(OC)c1OC.[Na+].[Na+].[Na+].[Na+]`, in the assay with P388, the EC50 was 0.3 µg/mL.

`COc1ccc([C@H](O)[C@@H](O)c2cc(OC)c(OC)c(OC)c2)cc1O` had a GI50 in the assay with FaDu of 0.6 µg/mL (≈ 1.71 µM). Also, the MIC in the assay on Streptococcus pneumoniae [6] was found to be 25 µg. In addition, the EC50 in the assay with P388 turned out to be 2 µg/mL (≈ 5.71 µM). Further, in [5], the pIC50 is 4.85.

(Values after ChEMBL document CHEMBL1142644, “Antineoplastic agents 440. Asymmetric synthesis and evaluation of the combretastatin A-1 SAR probes (1S,2S)- and (1R,2R)-1, 2-dihydroxy- 1-(2',3'-dihydroxy-4'-methoxyphenyl)-2-(3' ',4' ',5' '-trimethoxyphenyl)-ethane” (J Nat Prod, 2000).)
